The results in this text go back to patent US12187723B2 (BRISTOL-MYERS SQUIBB COMPANY, priority 2019, dated 2025).

In general, IC50 refers to the concentration at which inhibition is half-maximal. The low end stands for inhibition by little substance, the high end for a need for much substance.

One assay deals with T1, human TLR8 (Homo sapiens, UniProt Q9NR97).
T1 construct: host or cells: HEK-Blue cells
T1 sequence (Q9NR97 27-1041): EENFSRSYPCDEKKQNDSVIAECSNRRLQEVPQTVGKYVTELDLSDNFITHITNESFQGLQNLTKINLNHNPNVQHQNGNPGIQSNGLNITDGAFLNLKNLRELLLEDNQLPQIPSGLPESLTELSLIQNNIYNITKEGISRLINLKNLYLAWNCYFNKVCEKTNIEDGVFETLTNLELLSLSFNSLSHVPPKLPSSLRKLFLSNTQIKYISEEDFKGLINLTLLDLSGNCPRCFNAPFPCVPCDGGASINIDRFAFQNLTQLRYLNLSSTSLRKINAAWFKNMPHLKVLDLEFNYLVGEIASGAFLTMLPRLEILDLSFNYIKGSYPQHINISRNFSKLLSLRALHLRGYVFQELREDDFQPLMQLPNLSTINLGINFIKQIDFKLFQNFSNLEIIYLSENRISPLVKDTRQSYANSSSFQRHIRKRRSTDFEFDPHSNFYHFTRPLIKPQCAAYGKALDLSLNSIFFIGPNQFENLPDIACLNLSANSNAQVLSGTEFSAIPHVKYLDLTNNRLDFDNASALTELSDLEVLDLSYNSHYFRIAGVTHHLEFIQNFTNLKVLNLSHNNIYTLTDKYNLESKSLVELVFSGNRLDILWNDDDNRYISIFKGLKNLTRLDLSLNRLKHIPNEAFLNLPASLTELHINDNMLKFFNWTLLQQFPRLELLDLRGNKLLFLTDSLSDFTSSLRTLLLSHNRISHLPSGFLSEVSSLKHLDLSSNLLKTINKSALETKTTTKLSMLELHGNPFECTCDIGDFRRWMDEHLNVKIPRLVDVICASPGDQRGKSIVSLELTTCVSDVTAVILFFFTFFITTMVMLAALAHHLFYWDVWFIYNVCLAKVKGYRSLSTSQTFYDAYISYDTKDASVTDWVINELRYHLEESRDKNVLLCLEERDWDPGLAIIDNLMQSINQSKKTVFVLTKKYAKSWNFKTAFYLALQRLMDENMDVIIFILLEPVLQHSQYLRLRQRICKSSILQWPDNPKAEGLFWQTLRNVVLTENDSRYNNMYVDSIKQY
The assay is described as follows: TLR8 inhibition reporter assay (HEK-Blue SEAP). The note with it: HEK-Blue cells overexpressing human TLR8, R848 15.9 μM, 22 hour incubation. It counts as cell-based. Put shortly: (§1)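 Screening used HEK-Blue cells overexpressing one human TLR (7, 8 or 9) and an IFN-β minimal promoter–NF-κB/AP-1 SEAP construct. Stimulation lasted 22 h at 37 °C with receptor-specific agonist: gardiquimod, R848 or ODN2006 at 7.5 μM, 15.9 μM and 5 nM.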

For another assay, the target named is T2, human TLR9 (Homo sapiens, UniProt Q9NR96).
T2 construct: host or cells: HEK-Blue cells
T2 sequence (Q9NR96 26-1032): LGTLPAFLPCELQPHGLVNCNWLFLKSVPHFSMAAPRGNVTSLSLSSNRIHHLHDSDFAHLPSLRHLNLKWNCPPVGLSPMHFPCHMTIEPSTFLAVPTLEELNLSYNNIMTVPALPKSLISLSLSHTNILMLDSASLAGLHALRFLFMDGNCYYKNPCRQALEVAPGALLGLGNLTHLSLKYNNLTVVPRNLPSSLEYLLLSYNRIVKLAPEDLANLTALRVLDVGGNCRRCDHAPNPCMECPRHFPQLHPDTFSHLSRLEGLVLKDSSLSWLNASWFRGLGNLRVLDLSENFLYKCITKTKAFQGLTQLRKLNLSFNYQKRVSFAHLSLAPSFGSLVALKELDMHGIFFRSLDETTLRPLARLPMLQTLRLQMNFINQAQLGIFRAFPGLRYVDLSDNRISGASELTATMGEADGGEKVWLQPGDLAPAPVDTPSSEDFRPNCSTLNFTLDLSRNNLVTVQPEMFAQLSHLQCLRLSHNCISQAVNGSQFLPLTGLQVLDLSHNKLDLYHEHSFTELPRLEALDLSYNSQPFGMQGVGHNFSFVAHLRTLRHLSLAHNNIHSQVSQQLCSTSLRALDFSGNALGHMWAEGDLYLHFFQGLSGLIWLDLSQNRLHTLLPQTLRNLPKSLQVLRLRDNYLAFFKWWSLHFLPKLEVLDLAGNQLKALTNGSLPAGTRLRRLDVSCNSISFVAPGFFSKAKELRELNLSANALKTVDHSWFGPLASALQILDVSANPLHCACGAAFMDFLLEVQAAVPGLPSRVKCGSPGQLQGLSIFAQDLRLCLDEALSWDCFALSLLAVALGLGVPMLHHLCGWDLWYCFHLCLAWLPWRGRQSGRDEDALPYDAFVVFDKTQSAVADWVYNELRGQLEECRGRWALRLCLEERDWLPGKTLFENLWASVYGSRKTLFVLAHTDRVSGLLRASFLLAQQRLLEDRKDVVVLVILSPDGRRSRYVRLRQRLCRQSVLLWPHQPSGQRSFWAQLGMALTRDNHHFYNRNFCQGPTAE
Kind of assay: TLR9 inhibition reporter assay (HEK-Blue SEAP). It counts as cell-based. Particulars: HEK-Blue cells overexpressing human TLR9, ODN2006 5 nM, 22 hour incubation. In short, it runs like this: as §1

Take `COc1cc(-c2cc3[nH]c(=O)n([C@H]4CC[C@@H](NCC5CC5)CC4)c3cc2C)cn2ncnc12` [Example 60, 1-((1s,4s)-4-((cyclopropylmethyl)amino)cyclohexyl)-5-(8-methoxy-[1,2,4]triazolo[1,5-a]pyridin-6-yl)-6-methyl-1,3-dihydro-2H-benzo[d]imidazol-2-one]: the IC50 at human TLR8 was found to be 5.74 nM; against human TLR9 it was 6540 nM.

Turning to `CCC(CC)CN1CCC(n2c(=O)[nH]c3cc(-c4cc(OC)c5ncnn5c4)ccc32)CC1` [Example 75, 1-(1-(2-ethylbutyl)piperidin-4-yl)-5-(8-methoxy-[1,2,4]triazolo[1,5-a]pyridin-6-yl)-1,3-dihydro-2H-benzo[d]imidazol-2-one], the IC50 against human TLR8 is 1490 nM; at human TLR9, 2780 nM.

On to `Cc1cc2c(cc1-c1cc(C)c3ncnn3c1)[nH]c(=O)n2[C@@H]1CCCN(Cc2ncn(C)n2)C1` [Example 35, (R)-6-methyl-1-(1-((1-methyl-1H-1,2,4-triazol-3-yl)methyl)piperidin-3-yl)-5-(8-methyl-[1,2,4]triazolo[1,5-a]pyridin-6-yl)-1,3-dihydro-2H-benzo[d]imidazol-2-one], for which the IC50 at human TLR8 is 220 nM; against human TLR9, more than 50000 nM.

Consider `COc1cc(-c2ccc3c(c2)[nH]c(=O)n3C2CCN(C(C)C)CC2)cn2ncnc12` [Example 77, 1-(1-isopropylpiperidin-4-yl)-5-(8-methoxy-[1,2,4]triazolo[1,5-a]pyridin-6-yl)-1,3-dihydro-2H-benzo[d]imidazol-2-one], for which the IC50 is more than 3130 nM on human TLR8 and 417 nM on human TLR9.

As to `CCCN1CCC(n2c(=O)[nH]c3cc(-c4cc(OC)c5ncnn5c4)ccc32)CC1` [Example 76, 5-(8-methoxy-[1,2,4]triazolo[1,5-a]pyridin-6-yl)-1-(1-propylpiperidin-4-yl)-1,3-dihydro-2H-benzo[d]imidazol-2-one], the IC50 turned out to be 251 nM against human TLR8 and 1710 nM against human TLR9.

In the case of `COc1cc(-c2ccc3c(c2)[nH]c(=O)n3C2CCN(CC3CC3)CC2)cn2ncnc12` [Example 79, 1-(1-(cyclopropylmethyl)piperidin-4-yl)-5-(8-methoxy-[1,2,4]triazolo[1,5-a]pyridin-6-yl)-1,3-dihydro-2H-benzo[d]imidazol-2-one], the IC50 is 1550 nM at human TLR8 and 3900 nM against human TLR9.

With `COc1ncc(CN2CCC[C@H](n3c(=O)[nH]c4cc(-c5cc(C)c6ncnn6c5)c(C)cc43)C2)cn1` [Example 36, (S)-1-(1-((2-methoxypyrimidin-5-yl)methyl)piperidin-3-yl)-6-methyl-5-(8-methyl-[1,2,4]triazolo[1,5-a]pyridin-6-yl)-1,3-dihydro-2H-benzo[d]imidazol-2-one], the IC50 is 37.5 nM against human TLR8 and 30600 nM on human TLR9.

As to `COc1cc(-c2cc3[nH]c(=O)n([C@H]4CC[C@@H](NCC5CCCCC5)CC4)c3cc2C)cn2ncnc12` [Example 66, 1-((1s,4s)-4-((cyclohexylmethyl)amino)cyclohexyl)-5-(8-methoxy-[1,2,4]triazolo[1,5-a]pyridin-6-yl)-6-methyl-1,3-dihydro-2H-benzo[d]imidazol-2-one], the IC50 on human TLR8 came out at 0.66 nM; on human TLR9 it was 2050 nM.

`Cc1cc2c(cc1-c1cc(C)c3ncnn3c1)[nH]c(=O)n2C1CCN(CC(=O)N(C)C)CC1` [Example 89, N,N-dimethyl-2-(4-(6-methyl-5-(8-methyl-[1,2,4]triazolo[1,5-a]pyridin-6-yl)-2-oxo-2,3-dihydro-1H-benzo[d]imidazol-1-yl)piperidin-1-yl)acetamide]: the values for the IC50 at human TLR8 and at human TLR9 were 105 nM and 29000 nM, respectively.

As for `CCC(C)N[C@H]1CC[C@@H](n2c(=O)[nH]c3cc(-c4cc(C)c5ncnn5c4)c(C)cc32)CC1` (stereo partly shown) [Example 34, 1-((1s,4s)-4-(sec-butylamino)cyclohexyl)-6-methyl-5-(8-methyl-[1,2,4]triazolo[1,5-a]pyridin-6-yl)-1,3-dihydro-2H-benzo[d]imidazol-2-one], the results for the IC50 against human TLR8 and on human TLR9 were 4.65 nM and 3340 nM, respectively.

Take `COc1cc(-c2cc3[nH]c(=O)n([C@@H]4CCCN(CC5CCOCC5)C4)c3cc2C)cn2ncnc12` [Example 57, (R)-5-(8-methoxy-[1,2,4]triazolo[1,5-a]pyridin-6-yl)-6-methyl-1-(1-((tetrahydro-2H-pyran-4-yl)methyl)piperidin-3-yl)-1,3-dihydro-2H-benzo[d]imidazol-2-one]: the concentration for half-maximal inhibition (IC50) on human TLR8 came to 8.87 nM; against human TLR9 it was 5940 nM.

Regarding `COc1cc(-c2cc3[nH]c(=O)n([C@H]4CC[C@@H](N(C)C)CC4)c3cc2C)cn2ncnc12` [Example 48, 1-((1s,4s)-4-(dimethylamino)cyclohexyl)-5-(8-methoxy-[1,2,4]triazolo[1,5-a]pyridin-6-yl)-6-methyl-1,3-dihydro-2H-benzo[d]imidazol-2-one], the IC50 against human TLR8 was 5.33 nM; on human TLR9 it was 3770 nM.

As for `Cc1cc2c(cc1-c1cc(C)c3ncnn3c1)[nH]c(=O)n2[C@@H]1CCCN(CC(C)C)C1` [Example 40, (R)-1-(1-isobutylpiperidin-3-yl)-6-methyl-5-(8-methyl-[1,2,4]triazolo[1,5-a]pyridin-6-yl)-1,3-dihydro-2H-benzo[d]imidazol-2-one], the IC50 came out at 19.6 nM on human TLR8 and 6470 nM on human TLR9.

As to `CNC(=O)CN1CCC(n2c(=O)[nH]c3cc(-c4cc(C)c5ncnn5c4)c(C)cc32)CC1` [Example 88, N-methyl-2-(4-(6-methyl-5-(8-methyl-[1,2,4]triazolo[1,5-a]pyridin-6-yl)-2-oxo-2,3-dihydro-1H-benzo[d]imidazol-1-yl)piperidin-1-yl)acetamide], the IC50 against human TLR8 came out at 115 nM; on human TLR9, 45300 nM.

On to `COc1cc(-c2cc3[nH]c(=O)n([C@H]4CC[C@@H](NC5CCCC5)CC4)c3cc2C)cn2ncnc12` [Example 65, 1-((1s,4s)-4-(cyclopentylamino)cyclohexyl)-5-(8-methoxy-[1,2,4]triazolo[1,5-a]pyridin-6-yl)-6-methyl-1,3-dihydro-2H-benzo[d]imidazol-2-one], for which the IC50 came out at 1.7 nM against human TLR8 and 3440 nM at human TLR9.

With `Cc1cc2c(cc1-c1cc(C)c3ncnn3c1)[nH]c(=O)n2[C@@H]1CCCN(CC2CCCC2)C1` [Example 47, (R)-1-(1-(cyclopentylmethyl)piperidin-3-yl)-6-methyl-5-(8-methyl-[1,2,4]triazolo[1,5-a]pyridin-6-yl)-1,3-dihydro-2H-benzo[d]imidazol-2-one], the figures for the IC50 against human TLR8 and against human TLR9 were 32.8 nM and 3620 nM, respectively.

Turning to `Cc1cc2c(cc1-c1cc(C)c3ncnn3c1)[nH]c(=O)n2C1CCN(CC(=O)N(C)C)CC1` [Example 91, N,N-dimethyl-2-(4-(6-methyl-5-(8-methyl-[1,2,4]triazolo[1,5-a]pyridin-6-yl)-2-oxo-2,3-dihydro-1H-benzo[d]imidazol-1-yl)piperidin-1-yl)acetamide], the IC50 was more than 3130 nM against human TLR8 and more than 50000 nM on human TLR9.
